Reference: PMC7358525, “Characterization of PF-6142, a Novel, Non-Catecholamine Dopamine Receptor D1 Agonist, in Murine and Nonhuman Primate Models of Dopaminergic Activation” (Frontiers in Pharmacology, 2020)

Experiments:
Type in all cases: in vivo
[1] = system: acetylcholine levels in the PFC of WT and D1 KO mice; test: Prefrontal cortex acetylcholine levels via microdialysis, WT and D1 KO mouse; conditions: SCH-23390 0.32 mg/kg SC, mice
Description: Adult male Sprague-Dawley rats (280–360 g) were obtained from Charles-River Laboratories, Raleigh, NC and male C57BL/6J DRD1a WT and D1 DA receptor knockout mice (DRD1a-905781) were obtained from The Jackson Laboratories (Bar Harbor, ME). Animals were housed on a 12-h light/dark cycle with free access to food and water and allowed to acclimate for at least 5 d after arrival. Aseptic technique was used during the surgical procedure in order to prevent infection. On the day of the procedure animals were anesthetized with isoflurane (4%) and their heads shaved. The animals were then placed into a Kopf stereotaxic frame, the surgical area disinfected by swabbing with Provodine solution, and the area isolated with a sterile surgical drape. Anesthesia was maintained with isoflurane (2.5%–3%) delivered through a nose cone using a Univentor 400 anesthesia unit. Animals were given a 0.1 ml subcutaneous (s.c.) injection of Metacam (NSAID, meloxicam, 5 mg/ml, Boehringer Ingelheim) as a post-operative analgesic. Marcaine (bupivacaine, 0.5%, Hospira, Lake Forest, IL), a long acting local anesthetic, was administered s.c. at the surgical area to minimize pain and discomfort.
A 1.5–2 cm incision was made along the midline of the skull, beginning from a point just behind the eyes and running posterior. The skin was retracted with hemostats and the skull was further exposed using blunt dissection with cotton swabs. Bleeding capillaries were cauterized, and the skull dried with a sterile gauze sponge.
A microdialysis guide cannula [Bioanalytical Systems Inc (BAS), West Lafayette, IN, part # MD-2251] was placed into a guide holder on the stereotaxic frame and positioned over “Bregma”. The guide cannula was positioned over the PFC (A-P, +3.2 mm; M-L, +0.7 mm, left, relative to bregma) and the location marked on the skull. Using a 0.7 mm burr, a hole was made in the skull at the cannula position. […]
For conventional analysis, ACh was analyzed by high performance liquid chromatography (HPLC) utilizing a modification of the BAS ACh-choline assay kit (BAS part # MF-8910). […]

[2] = system: mouse locomotor activity; test: Mouse locomotor activity (LMA)
Method: Locomotor activity data were measured by an automated infrared photo-beam system in sound attenuating chambers controlled by Versamax® software, provided by Accuscan Instruments Inc. (Columbus, Ohio), which quantified beam breaks similar to the methods used previously ([Xu et al., 2000]). To test D1 receptor selectivity in a pharmacologic model, C57BL/6J mice were habituated to the apparatus for 90 min, followed by pretreatment with vehicle or SCH-23390 (0.01, 0.032, 0.1 0.32, s.c.) and returned to the apparatus for 30 min. […] Data were compared against the vehicle group using a repeated measures one-way ANOVA with a Dunnett’s post-test. To test D1 receptor selectivity in a genetic model, DRD1a WT and knockout mice (D1 KO) were habituated to the apparatus for 90 min, pretreated with vehicle or SCH-23390 (0.032 mg/kg, s.c.) and returned to the apparatus for 30 min. […] Data were compared within genotype using a two-way ANOVA with a Dunnett’s post-hoc test versus vehicle treated group.

[3] = system: MK-801-disrupted paired-pulse facilitation; test: Paired-pulse facilitation (PPF), CA1/subiculum to mPFC, urethane-anesthetized rat
Method: (§1) Experiments were performed on n=10 adult male Sprague-Dawley rats (275–305 g) under urethane anesthesia (1.5 g/kg, i.p.). The femoral vein was cannulated for i.v. administration of drugs. A stimulation electrode was placed in the CA1/subiculum region (coordinates: A-P = +6.3 mm, M–L = +5.2 mm, D-V = +8.0 mm) using stereotactic methods and unilateral local field potential (LFP) was recorded by a metal monopolar macroelectrode placed into the medial PFC (mPFC; coordinates: A-P = +3.0 mm, M-L = +0.6 mm, D-V = +5.0 mm). […] Evoked responses to the first and the second stimuli were identified (P1 and P2, respectively) and the amount of PPF determined by the formula: (P2 amplitude/P1 amplitude). Waveform averages used to calculate PPF consisted of 60 consecutive stimuli. Five minutes were allowed between administration of each drug dose and the starting of the subsequent average of each 10-min period after each cumulative dose (0.1–1 mg/kg, IV). Disruption in power of LFP delta activity was measured as the percentage of power in low frequency (0–1.8 Hz) irregular activity in the total (0–4 Hz) delta power range. LFP power spectra were determined during periods concurrent with waveform averages and PPF calculation. Statistical significance was determined by means of two-tailed paired Student’s t-test.

[4] = system: mPFC low frequency delta activity; test: mPFC low frequency delta field potential oscillation power, anesthetized rat
Method: as §1

[5] = system: conditioned avoidance responding; test: Rat conditioned avoidance response (CAR)
Method: The CAR assay was performed under similar conditions previously described ([Marquis et al., 2011]) at WuXiAppTec Inc. (Delin Rd. #90, Waigaoquiao Free Trade Zone, Shanghai 200131, China). For this study, adult male Fisher-344 rats were trained and tested in a two-way active avoidance apparatus with MED-PC software (MED Associates, St. Albans, VT, USA).
Briefly, subjects were handled and acclimated to the shuttle boxes for 2 d prior to training sessions. During training sessions, subjects were trained to avoid an electric footshock by moving to the adjacent, non-stimulus side of the shuttle box upon presentation of tone + light stimuli which preceded the presentation of the footshock (0.6 mA, 10 s duration) by 10 s. For this assay an avoidance was defined as moving to the adjacent compartment during the tone+light presentation that preceded the shock, an escape was defined as moving to the adjacent compartment upon presentation of the shock, and an escape failure was defined as a lack of relocation to the adjacent compartment throughout the presentation of the shock. Subjects received 30 trials of training per day for 5 d. Subjects with ≥ 80% avoidance responses on two consecutive days with no escape failures, were considered qualified for testing, and were randomized across treatment groups (n=8–9 per treatment group). […] Avoidance responding was calculated as % of the number of total trials in which an avoidance occurred. Data were calculated for each animal and compared across treatment groups using one-way ANOVA with Dunnett’s post-test versus the vehicle + vehicle treated group.

[6] = system: prepulse inhibition of startle; test: Mouse prepulse inhibition (PPI) and acoustic startle; conditions: risperidone 0.56 mg/kg s.c., C57BL/6J mice
Method: Drug and behaviorally naïve adult male C57BL/6J mice (9–11 weeks of age; n=8 per dose group) were used for PPI experiments. Subjects were tested individually in SR-Lab acoustic startle chambers (San Diego Instruments, San Diego CA, USA) equipped with a restrainer mounted atop a piezoelectric accelerometer which measured transduced movement in response to the presentation of audio stimuli presented through a speaker mounted 20 cm above the animal. Subjects were acclimated to an anteroom adjacent to the testing room at minimum 60 min prior to testing. Test sessions began with a 5 min acclimation period to background noise (65 dB) followed by presentation of six randomized repetitions of the 120 dB startle stimulus (40 ms duration) presented alone or paired in combination with a pre-pulse stimulus of 68, 72, or 74 db (20 msec in duration) presented 80 msec prior to the 120 dB startle stimulus, which was equivalent to +3, +7, and +9 db over background noise, respectively. Data were also recorded for no stimulus values to evaluate background level of response. The inter-trial interval between stimulus presentations was randomized and ranged from 10 to 20 s. Test compounds were administered 30 min (s.c.) prior to testing. […] Percent PPI was calculated for each individual subject as the relative change in the 120 dB startle response in the presence of each prepulse intensity using the formula: 100-((prepulse-pulse)/pulse)*100 as previously described ([Ralph-Williams et al., 2003]).
The experiment was analyzed using a two-way mixed model ANOVA (lme4 library in R software). The model included prepulse stimulus intensity levels, treatment (as all combinations of pre-treatment and treatment), and their interaction as fixed factors and random intercept, random slope for each animal as random factors. […] In order to adjust for multiple hypothesis testing we used false discover rate method which controls the expected proportion of false discoveries among the rejected hypotheses. For all statistical tests, p < 0.05 between groups was considered significant.

CN1CCc2cc(Cl)c(O)cc2[C@@H](c2ccccc2)C1 [SCH-23390, reference compound]
effect on PF-6142-induced increase in PFC ACh level [1]: attenuated
effect on PF-6142-increased activity in WT mice ([2]; SCH-23390 0.032 mg/kg s.c. pretreatment): attenuated
effect on PF-6142 (10 mg/kg s.c.)-stimulated activity ([2]; SCH-23390 pretreatment 0.01, 0.032, 0.1, 0.32 mg/kg s.c.): blocked
baseline P1 and P2 response amplitudes ([3]; SCH-23390 0.32 mg/kg IV): no effect
control PPF ([3]; SCH-23390 0.32 mg/kg IV (p=0.06)): no impact
effect on PF-6142 (1-3 mg/kg IV) reversal of MK-801 effects on PPF ([3]; SCH-23390 0.32 mg/kg IV pretreatment): block
mPFC low frequency delta activity ([4]; SCH-23390 0.32 mg/kg IV alone (p=0.19)): no significant effect

C[C@]12N[C@H](Cc3ccccc31)c1ccccc12 [MK-801]
increase of P1 response amplitude ([3]; MK-801 0.1 mg/kg IV): 44%
increase of P2 response amplitude ([3]; MK-801 0.1 mg/kg IV): 10%
PPF ([3]; MK-801 0.1 mg/kg IV (p=0.04)): significant decrease
low frequency (0-1.8 Hz) irregular delta activity ([4]; MK-801 0.1 mg/kg IV (p=0.01)): significant increase

NC[C@@H]1O[C@H](C23CC4CC(CC(C4)C2)C3)Cc2c1ccc(O)c2O [A-77636, reference compound]
locomotor activity, five consecutive days of dosing ([2]; 3.2 mg/kg s.c. daily, CD-1 mice): increased locomotor activity

Cc1nc2n(c(=O)c1CCN1CCC(c3noc4cc(F)ccc34)CC1)CCCC2 [risperidone, reference compound]
mean % avoidance responses ([5]; risperidone 0.1 mg/kg s.c.): 83.33%
mean % avoidance responses ([5]; risperidone 0.56 mg/kg s.c. (p<0.001)): 6.875%
%PPI [6]: produced an increase in %PPI
